Source: patent US7754753B2, “Analgesic and anti-inflammatory compositions containing Cox-2-inhibitors” (Wyeth LLC, priority 2000, dated 2010)

System: Male Swiss mice
Assay: acetic acid-induced writhing test (mouse writhing model)
Type: in vivo
Conditions: for oral A50 value (antinociceptive dose-response): +30 minutes before acetic acid, 95% confidence limits for ibuprofen 17.57-40.58
Procedure: A modification of the acetic acid-induced writhing test (as disclosed in Porreca, F., H. I. Mosberg, J. R. Omnaas, T. F. Burks and A. Cowan in Supraspinal and spinal potency of selective opioid agonists in the mouse writhing test (Journal of Pharmacology and Experimental Therapeutics 240: 890-894, 1987)) was conducted. The mouse writhing model as described is commonly used to investigate analgesic efficacy and potential synergism with combinations of drugs.
Male Swiss mice weighing 25-30 g were obtained from Ace Laboratories. They were each placed in individual rectangular observation boxes and allowed to acclimate for at least 1 hour. A placebo vehicle of 1% Tween 80/water was prepared.
Groups of 8-10 mice each received the test agent or placebo vehicle (in an amount of 0.25 ml/25 grams of body weight) orally via stomach tube. Those mice that received the placebo vehicle composed the control group. After 20, 30, 40 or 60 minutes, each mouse was injected parenterally with a 0.6% acetic acid solution (0.25 ml/25 g body weight).
Percent inhibition of writhing was expressed as: (Means writhes in control group)−(Writhes by individual mouse)×100/(Mean writhes in control group)
A preliminary study was conducted at +30 minutes to establish antinociceptive dose-response curves for ibuprofen (obtained from Sigma Chemical) and celecoxib (manufactured by G.D. Searle & Co. in 200 mg capsules and marketed under the trademark Celebrex®), respectively.
A second group of mice (n=8-10) received […] of ibuprofen followed immediately by the placebo vehicle. At either +20, +40 or +60 minutes following administration, the animals were injected i.p. with 0.6% acetic acid (0.25 ml/25 g body weight) and run in the writhing test.

[1] = dose 20 mg/kg oral, +30 minutes
[2] = dose 40 mg/kg oral, +30 minutes
[3] = dose 80 mg/kg oral, +30 minutes

SMILES	effect of celecoxib on ibuprofen analgesia in words (celecoxib 20 mg/kg given with ibuprofen 29 mg/kg, +20 to +60 min)	antinociceptive activity in words (celecoxib 20 mg/kg oral alone)	Mean % inhibition + s.e.m. (writhing) [1]	Mean % inhibition + s.e.m. (writhing) [2]	Mean % inhibition + s.e.m. (writhing) [3]	oral A50 value (antinociceptive dose-response) (oral)	Mean % inhibition + s.e.m. (writhing) (time 20 min, ibuprofen 29 mg/kg followed immediately by celecoxib 20 mg/kg or placebo vehicle, oral)	Mean % inhibition + s.e.m. (writhing) (time 40 min, ibuprofen 29 mg/kg followed immediately by celecoxib 20 mg/kg or placebo vehicle, oral)	Mean % inhibition + s.e.m. (writhing) (time 60 min, ibuprofen 29 mg/kg followed immediately by celecoxib 20 mg/kg or placebo vehicle, oral)
Cc1ccc(-c2cc(C(F)(F)F)nn2-c2ccc(S(N)(=O)=O)cc2)cc1 [Celecoxib, 4-[5-(4-methylphenyl)-3-(trifluoromethyl)-1H-pyrazol-1-yl]benzenesulfonamide]	potentiated the ibuprofen through faster onset and duration of action	essentially inactive	7.5 ± 3.38%	21.7 ± 4.17%	28.3 ± 8.34%	> 80 mg/kg			
CC(C)Cc1ccc(C(C)C(=O)O)cc1 (stereo not shown) [Ibuprofen, ibuprofen]			38.7 ± 11.2%	59.4 ± 9.58%	74.0 ± 4.68%	29.07 mg/kg	36.4 ± 3.2%	14.1 ± 6.2%	27.3 ± 8.2%
